Experimental data from patent publication US20250032651A1, “[177LU] LUTETIUM-PSMA I&T COMPOSITION AND DOSIMETRY, KIT, METHOD OF MAKING, AND METHOD OF USING THEREOF” (Curium US LLC, priority 2022, published 2025).
Values joined by “and” are separate entries in the source; they are usually repeats but may differ in a detail not shown here. Identical values can stand only once.

Experiments:
[1] = Batch release QC / patient dose batch data; format: physicochemical; conditions: patient dose batches
Experimental: In another embodiment, the radioactivity is measured in a dose calibrator. The radioactive amount of [^177Lu]Lu-PSMA I&T is determined when the dose is dispensed.
In one embodiment, bacterial endotoxin content is determined for each batch before release using a PTS-tester (Ph Eur method D) and sterility is determined according to Ph Eur.
The specifications listed were used as release parameters except for sterility testing. Sterility was tested on all batches post-release.

[2] = Biodistribution: SPECT/CT time-activity curves (fraction of injected activity), whole-body half-lives; format: in vivo, human; conditions: Cycle 1
Experimental: This Example presents the biodistribution, dosimetry, and pharmacokinetics (PK) results of a PK/Dosimetry sub-study performed as part of a Phase III trial. Twenty-seven (27) patients were administered a target activity of 7.4±10% GBq of ^177Lu-PSMA-I&T and underwent single photon emission computed tomography (SPECT)/computed tomography (CT) imaging at four timepoints (4 h, 24 h, 48 h, and 168 h). Image data was analysed to compute time-activity curves (TACs) and subsequently time-integrated activity coefficients (TIACs) in each organ of interest and in organs showing appreciable and meaningful ^177Lu-PSMA-I&T activity. Organ Level Internal Dose Assessment (OLINDA 2.2.3) was used to compute organ and whole body absorbed radiation doses for each patient.
All participating sites underwent a rigorous site setup process during which all dose calibrators, scanners, and gamma counters used in the sub-study were calibrated. Sites were allowed to enroll patients in the sub-study only after the completion and approval of all site setup processes by Invicro. Patients underwent SPECT/CT imaging, with anatomical coverage typically extending from the salivary glands to the pelvis, following the administration of a targeted 7.4±10% GBq of ^177Lu-PSMA-I&T at cycle 1. SPECT/CT imaging was performed at four timepoints: 4 h, 24 h, 48 h, and 168 h post-injection. Additionally, a subset of patients imaged at Cycle 1 (16 out of 27), were also imaged at Cycle 3 (Table 2).
Volume of interest (VOI) (kidneys, bladder, liver, lumbar vertebrae L2-L4, lacrimal glands, salivary glands [parotid and submandibular glands], and whole body) were delineated on each dataset by a trained image analyst. […] Organs were segmented either by drawing the entire contour of the organ, or by placing a sphere in a representative region of the organ and then multiplying by the organ's effective mass (based on patient's height and weight). Segmentation methods for each organ are specified in Table 3 and were consistently applied to each patient.
Clearance of the radiopharmaceutical was derived from a data-appropriate fit of each organ's TAC. Depending on the TAC's shape, the data was fitted with the sum of one, two, or three exponentials, or using a rise and fall model. Fitting was performed with in-house Python software. TIACs were calculated through analytical integration of the curve fit extrapolated to infinity. […] A whole-body TAC was derived from delineating the imaged body. The remainder activity was determined by subtracting the cumulative organ TIACs from the whole body TIAC.
Note: the time-activity curves in these figures are not decay-corrected to time of injection.
The whole-body time-activity curves were fitted with bi-exponential equation and the two components were used for the distribution and elimination half-life.

[3] = bi-exponential fit of whole-body time-activity curves, excluding patient 42-030

| Compound | Measured PSMA Sum [1] [µg/mL] | Theoretical PSMA Sum [1] | whole body mean activity retention at 4 h ([2]; averaged across patients excluding 42-030) | whole-body distribution half-life (mean) [2, 3] [h] | whole-body elimination half-life (mean) [2, 3] [h] | whole body activity retention at 4 h, max ([2]; excluding 42-030) [%] | whole body activity retention at 4 h, min ([2]; excluding 42-030) [%] | route of excretion ([2]; visible accumulation in the urinary bladder) |
| --- | --- | --- | --- | --- | --- | --- | --- | --- |
| O=C([O-])CC[C@H](NC(=O)N[C@@H](CCCCNC(=O)CCCCCCC(=O)NCCCC[C@@H](NC(=O)[C@@H](Cc1ccccc1)NC(=O)[C@@H](Cc1ccc(O)c(I)c1)NC(=O)CC[C@H](C(=O)[O-])N1CCN(CC(=O)[O-])CCN(CC(=O)[O-])CCN(CC(=O)[O-])CC1)C(=O)[O-])C(=O)[O-])C(=O)[O-].[177Lu+3].[H+].[H+].[H+].[H+].[H+] [Lu-177 PSMA I&T] | 5.0 | 5.9 µg/mL and 6.4 µg/mL |  |  |  |  |  |  |
| O=C([O-])CC[C@H](NC(=O)N[C@@H](CCCCNC(=O)CCCCCCC(=O)NCCCC[C@@H](NC(=O)[C@@H](Cc1ccccc1)NC(=O)[C@@H](Cc1ccc(O)c(I)c1)NC(=O)CC[C@H](C(=O)[O-])N1CCN(CC(=O)[O-])CCN(CC(=O)[O-])CCN(CC(=O)[O-])CC1)C(=O)[O-])C(=O)[O-])C(=O)[O-].[177Lu+3].[H+].[H+].[H+].[H+].[H+] [^177Lu-PSMA I&T, (3S,7S,26R,29R,32R,37R)-29-benzyl-32-(4-hydroxy-3-iodobenzyl)-5,13,20,28,31,34-hexaoxo-37-(4,7,10-tris(carboxymethyl)-1,4,7,10-tetraazacyclododecan-1-yl)-4,6,12,21,27,30,33-heptaazaheptatriacontane-1,3,7,26,37-pentacarboxylic acid; lutetium-177 (III)] |  |  | 44%±13% | 2.16 ± 1.30 | 46.29 ± 23.83 | 78 | 24 | primarily excreted through the urine |
